Source: US20230285556A1, “METHODS AND COMPOSITIONS FOR TREATING CANCER” (Omeros Corporation, priority 2021, published 2023)
Values joined by “and” are separate entries in the source; they are usually repeats but may differ in a detail not shown here. Equal values may be shown once.

Experiments:
[1] = system: OT-I TCR transgenic CD8 T cells; assay: Example 6: OT-I CD8 T cell expansion with PKA and p38 inhibitors, IL-2 after restimulation with EG7 cells; assay type: cell-based, mouse; conditions: 0.2 μM doramapimod, 500 μM Rp-8-Br-cAMPS
Description: (§1) and the following individual conditions: • 1. DMSO vehicle control • 2. 0.2 μM doramapimod • 3. 500 μM Rp-8-Br-cAMPS • 4. 0.2 μM doramapimod+500 μM Rp-8-Br-cAMPS
On day 8, cells were immunophenotyped with the following antibodies: anti-CD8 BV570, anti-CD62L eFluor450, anti-TCF1/TCF7 PE, anti-CD39 PerCP-eFluor710, anti-CD69 BV605, anti-PD-1 BV711, anti-CTLA-4 APC, and LIVE/DEAD™ Fixable Green Dead Cell Stain.
(§2) After overnight culture, supernatants were harvested and analyzed for IL-2 content (MesoScale Discovery).

[2] = system: OT-I TCR transgenic CD8 T cells; assay: Example 6: immunophenotyping of OT-I T cells on day 8; assay type: cell-based, mouse; conditions: 8 days of culture
Description: as §1
On days 2, 4, 6, and 8, cells were counted, washed, and reseeded at 0.5 million per well in 2 mL media with the same 4 doramapimod/Rp-8-Br-cAMPS conditions and with recombinant mouse IL-2 and IL-7 (5 ng/mL each). On day 8, cells were immunophenotyped with the following antibodies: anti-CD8 BV570, anti-CD62L eFluor450, anti-TCF1/TCF7 PE, anti-CD39 PerCP-eFluor710, anti-CD69 BV605, anti-PD-1 BV711, anti-CTLA-4 APC, and LIVE/DEAD™ Fixable Green Dead Cell Stain.

[3] = system: OT-I TCR transgenic CD8 T cells; assay: Example 8: OT-I CD8 T cell 9-day expansion with PKA, p38, PI3Kδ inhibitors, IL-2 after restimulation with EG7 cells; assay type: cell-based, mouse
Description: DMSO vehicle control • 2. 0.5 μM doramapimod • 3. 500 μM Rp-8-Br-cAMPS • 4. 0.5 μM doramapimod+500 μM Rp-8-Br-cAMPS • 5. 1 μM idelalisib • 6. 1 μM idelalisib+0.5 μM doramapimod • 7. 1 μM idelalisib+500 μM Rp-8-Br-cAMPS • 8. 1 μM idelalisib+0.5 μM doramapimod+500 μM Rp-8-Br-cAMPS
On days 2, 4, 6, and 8, cells were counted, washed and reseeded at 0.5 million per well in 2 mL media with the same 8 conditions and with recombinant mouse IL-2 and IL-7 (5 ng/mL each). […] Cells were also washed three times (12 mL media each), and restimulated in quintuplicate in 96-well round-bottom plates with the following conditions: • 0.1 mL RP10 media • 0.05 million OT-I T cells from each condition • 0.05 million EG7 cells
as §2

EG7 tumors = assay: Example 7: adoptive transfer of inhibitor-precultured OT-1 T cells into EG7 tumor-bearing mice; assay type: in vivo, mouse
Description: as §1
On day 6 cells were seeded in 6-well plates with […] per well, and on day 8 cells were seeded in T75 flasks in 30 mL media to obtain enough cells to transfer into EG7 tumor-bearing mice.
C57BL/6 female mice were implanted with 6 million EG7 tumor cells subcutaneously on day 4 of the OT-1 T cell expansion. On day 6 of tumor growth (day 10 of OT-1 T cell expansion) OT-1 T cells were washed and injected retro-orbitally into tumor bearing mice that had been sorted into 4 groups with equal tumor volume distributions (n=8). Via retroorbital injection, mice received 2 million OT1 T cells of each of the 4 culture conditions. Tumor volume (mm^3) was calculated as 0.5×(length×width^2), where length represents the largest tumor diameter and width represents the perpendicular tumor diameter. Mice were euthanized when the sum of the two measurements exceeded 30 mm.

human CD8 T cells [4] = assay: Example 4: human CD8 T cell expansion with GPR174, A2A, PKA or EPAC inhibitors, IL-2 after restimulation; assay type: cell-based; conditions: 300 nM Compound #10, 100 nM ZM-241385, 500 μM Rp-8-Br-cAMPS, 5 μM ESI-09; 5.5 hours restimulation
Description: Purified human CD8 T cells were cultured in 24-well plates with the following conditions per well: • 2 mL X-VIVO™ 15 media (Lonza) • 0.4 million human CD8 T cells (Donor A) • 2 million Human T-Activator CD3/CD28 Dynabeads® (ThermoFisher) • 10 ng/mL human IL-7 (R&D Systems) • 10 ng/mL human IL-15 (R&D Systems)
and the following individual conditions, ±300 nM Compound #10: • 1. DMSO vehicle control • 2. […] 500 μM Rp-8-Br-cAMPS • 4. 5 μM ESI-09
On days 3, 5, and 7, cultures were washed and seeded at 0.5 cells million per well with the same small molecule inhibitor conditions, and with IL-7 and IL-15.
After 5.5 hours of culture, supernatants were harvested and analyzed for IL-2 content (MesoScale Discovery).

human CD8 T cells [5] = assay: Example 5: human CD8 T cell expansion with cAMP pathway and p38 inhibitors, IL-2 after restimulation; assay type: cell-based; conditions: 500 μM Rp-8-Br-cAMPS, 0.5 μM doramapimod
Description: (§3) DMSO vehicle control • 2. […] 500 μM Rp-8-Br-cAMPS • 4. […] 0.5 μM doramapimod • 6. Media control
(§4) or the following individual conditions for the experiment shown in FIG. 8, each ±0.5 μM doramapimod: • 1. DMSO vehicle control • 2. 500 μM Rp-8-Br-cAMPS • 3. […] 5 μM ESI-09
(§5) On days 3, 5, and 7, cultures were washed and seeded at 0.5 cells million per well with the same small molecule inhibitor conditions, and with IL-7 and IL-15. On day 10, cells were washed twice (12 mL media each), and restimulated in quadruplicate in 96-well round-bottom plates with the following conditions: • 0.1 mL X-VIVO™ 15 media (Lonza) • 0.05 million cells from each condition • 0.1 million Human T-Activator CD3/CD28 Dynabeads® (ThermoFisher)
as §2

human CD8 T cells [6] = assay: Example 5: T cell number increase during 10-day expansion; assay type: cell-based
Description: as §3, §4, §5

GPR174 [7] = target: T1, GPR174 (Homo sapiens, UniProt Q9BXC1); assay: CRA (EC50) of GPR174 inhibitor compounds, tested as described in US 20200276190; assay type: cell-based; conditions: multiple values = separate experiments
T1 sequence (Q9BXC1 whole entry): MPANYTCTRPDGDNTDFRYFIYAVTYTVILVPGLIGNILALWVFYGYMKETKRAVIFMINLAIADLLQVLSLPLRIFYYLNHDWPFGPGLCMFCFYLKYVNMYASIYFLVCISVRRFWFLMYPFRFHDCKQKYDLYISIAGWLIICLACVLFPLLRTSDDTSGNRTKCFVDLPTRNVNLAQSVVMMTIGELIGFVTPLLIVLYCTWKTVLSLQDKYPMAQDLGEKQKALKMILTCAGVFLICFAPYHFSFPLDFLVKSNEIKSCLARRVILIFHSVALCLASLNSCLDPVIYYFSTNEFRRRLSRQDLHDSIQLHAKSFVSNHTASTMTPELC
Description: (§6) Where present, multiple EC50 values correspond to values obtained in separate experiments. […] The activity of the compounds was tested as described in US 20200276190, the disclosure of which is incorporated herein by reference.

GPR174 [8] = target: T1, GPR174; assay: Human GPR174 CRE activity / Gs signaling; assay type: cell-based
Description: as §6

Nc1ncnc2c1nc(Br)n2[C@@H]1O[C@@H]2COP([O-])(=S)O[C@H]2[C@H]1O.[Na+] (single isomer, unassigned) [Rp-8-Br-cAMPS, 8-Br-cAMPS, Rp-isomer]
IL-2 production from 8-day OT-I cultures, fold vs vehicle control ([1]; day 8 restimulation with EG7 cells): 5.3 fold | IL-2 production from 10-day OT-I cultures, fold over vehicle control ([1]; day 10 restimulation with EG7 cells): 18 fold | downregulation of CTLA-4 [2]: particularly effective at downregulating CTLA-4 | increase in cells expressing both CD62L and TCF1/TCF7 relative to vehicle control [2]: smaller increases | percentage of OT-I T cells expressing both CD39 and CD69 ([2]; vehicle 22%): smaller reductions | Fold-change in IL-2 production relative to Vehicle control ([3]; Idelalisib (agent together with 1 μM idelalisib)): 89.9 | Fold-change in IL-2 production relative to Vehicle control ([3]; column Vehicle (without idelalisib), 0.5 μM doramapimod, 500 μM Rp-8-Br-cAMPS): 1.6 | tumor growth / tumor volume after transfer of precultured OT-1 T cells (EG7 tumors; 2 million OT-1 T cells expanded 10 days with 0.2 μM doramapimod and/or 500 μM Rp-8-Br-cAMPS, retro-orbital, relative to vehicle control cells): significantly halted and delayed tumor growth | survival of tumor-bearing mice (EG7 tumors; OT-1 T cells precultured with inhibitor(s), relative to vehicle group): intermediate survival times | IL-2 production following restimulation, fold increase vs vehicle (FIG. 6) (human CD8 T cells [4]): 3.7 fold | IL-2 production following restimulation, fold above vehicle control (FIG. 8) (human CD8 T cells [5]; 10 μM HJC-0197, 5 μM ESI-09): 2 fold | IL-2 production following restimulation, fold vs vehicle (FIG. 7) (human CD8 T cells [5]; GPR174+A2A inhibitors, overnight restimulation): 3.6 fold | T cell growth during the 10-day culture relative to vehicle-treated cells (FIG. 8) (human CD8 T cells [6]): ~2 fold | fold-increase in T cell number during the 10-day expansion (FIG. 7) (human CD8 T cells [6]; vehicle and media controls approximately 50-fold): 170 fold

CCOC(=O)N1CCN(c2cc(N3CCC(C)CC3)c(F)cc2[N+](=O)[O-])CC1 [Compound 1]
EC50 (GPR174 [7]): 1.5 µM and 0.9 µM

CC(=O)N1CCN(c2cc(N3CCCCC3)c(F)cc2[N+](=O)[O-])CC1 [Compound 2]
EC50 (GPR174 [7]): 3.3 µM and 3 µM and 5.1 µM

CC(=O)c1ccc(N2CCN(C(=O)c3ccc(F)cc3)CC2)c(F)c1 [Compound 3]
Human GPR174 CRE Activity (type of modulation) (GPR174 [8]): Antagonist or allosteric modulator | EC50 (GPR174 [7]): 4.1 µM

CCCC(=O)c1ccc(N2CCN(S(=O)(=O)c3ccc(C)cc3)CC2)c(F)c1 [Compound 4]
Human GPR174 CRE Activity (type of modulation) (GPR174 [8]): Antagonist | competition with the GPR174 agonist LysoPS (GPR174 [8]): found to compete with the GPR174 agonist LysoPS | EC50 (GPR174 [7]): 0.2 µM

O=C(c1ccccc1)N1CCN(c2cc(N3CCCCC3)c(F)cc2[N+](=O)[O-])CC1 [Compound 6]
EC50 (GPR174 [7]): 1.4 µM

Cc1ccc(-c2nnc(Nc3ccccc3)c3ccccc23)cc1S(N)(=O)=O [Compound 19]
Human GPR174 CRE Activity (type of modulation) (GPR174 [8]): Antagonist or allosteric modulator

Cc1ccccc1Nc1nnc(-c2ccc(C)c(S(N)(=O)=O)c2)c2ccccc12 [Compound 20]
Human GPR174 CRE Activity (type of modulation) (GPR174 [8]): Antagonist or allosteric modulator | EC50 (GPR174 [7]): 5 µM

Cc1cc(Cc2ccc(NC(=O)c3cccs3)c(C)c2)ccc1NC(=O)c1cccs1 [Compound 21]
Human GPR174 CRE Activity (type of modulation) (GPR174 [8]): Antagonist or allosteric modulator | EC50 (GPR174 [7]): 2.7 µM
